Source: ChEMBL document CHEMBL1909046, “DrugMatrix in vitro pharmacology data”

How the values were obtained:
B2 bradykinin receptor = molecular target: T1, B2 bradykinin receptor (Homo sapiens, UniProt P30411); format: cell membranes, Membrane; conditions: chem-1; further: in other assays of this panel Not Active means under 50% inhibition at 10 µM
T1 sequence (P30411 whole entry): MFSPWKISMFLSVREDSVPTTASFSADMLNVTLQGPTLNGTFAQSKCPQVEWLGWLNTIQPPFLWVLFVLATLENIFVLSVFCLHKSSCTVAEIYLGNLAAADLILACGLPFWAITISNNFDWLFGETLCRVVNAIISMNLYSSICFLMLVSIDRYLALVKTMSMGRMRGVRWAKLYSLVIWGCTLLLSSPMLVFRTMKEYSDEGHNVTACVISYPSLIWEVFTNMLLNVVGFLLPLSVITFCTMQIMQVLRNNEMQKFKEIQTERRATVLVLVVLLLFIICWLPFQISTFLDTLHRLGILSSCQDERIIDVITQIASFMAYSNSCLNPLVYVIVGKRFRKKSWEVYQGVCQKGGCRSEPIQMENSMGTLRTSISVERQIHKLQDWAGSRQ

[1] = DRUGMATRIX: Calcium Channel Type L, Benzothiazepine radioligand binding (ligand: [3H] Diltiazem); format: cell membranes, Rattus norvegicus, Wistar, Brain, Membrane; conditions: Not Active = under 50% inhibition at 10 µM
[2] = DRUGMATRIX: Tumor Necrosis Factor (TNF), Non-Selective radioligand binding (ligand: [125I] TNF-alpha); format: cell membranes, Membrane; conditions: u-937; Not Active = under 50% inhibition at 10 µM
[3] = molecular target: T2, Cholecystokinin receptor type A (Homo sapiens, UniProt P32238); format: cell membranes, Membrane; conditions: 1321-n1; further: in other assays of this panel Not Active means under 50% inhibition at 10 µM
T2 sequence (P32238 whole entry): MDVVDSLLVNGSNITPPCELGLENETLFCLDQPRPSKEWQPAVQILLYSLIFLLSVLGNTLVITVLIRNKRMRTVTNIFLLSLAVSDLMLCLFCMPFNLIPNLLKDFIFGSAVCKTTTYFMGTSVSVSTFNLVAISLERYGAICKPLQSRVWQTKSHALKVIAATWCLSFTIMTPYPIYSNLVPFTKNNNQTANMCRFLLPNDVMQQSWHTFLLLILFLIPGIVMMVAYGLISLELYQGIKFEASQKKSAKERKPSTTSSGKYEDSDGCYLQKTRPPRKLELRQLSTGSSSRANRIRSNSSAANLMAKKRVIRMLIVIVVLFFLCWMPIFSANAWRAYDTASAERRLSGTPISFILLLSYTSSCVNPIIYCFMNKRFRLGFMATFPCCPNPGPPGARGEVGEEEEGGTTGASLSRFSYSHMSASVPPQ

Leukotriene C4 synthase = molecular target: T3, Leukotriene C4 synthase (Cavia porcellus, UniProt A6XA80); assay: biochemical; format: tissue-based, Lung;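 further: enzyme inhibition assay of leukotriene C4 synthase, using LTA4 as the substrate; in other assays of this panel Not Active means under 50% inhibition at 10 µM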
T3 sequence (A6XA80 whole entry): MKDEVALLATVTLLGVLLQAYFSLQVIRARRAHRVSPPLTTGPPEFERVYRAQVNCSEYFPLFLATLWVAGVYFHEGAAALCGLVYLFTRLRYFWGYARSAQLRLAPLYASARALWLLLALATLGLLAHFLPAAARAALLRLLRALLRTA

[4] = molecular target: T4, Cysteinyl leukotriene receptor 1 (Homo sapiens, UniProt Q9Y271); format: cell membranes, CHO-K1, Membrane; conditions: cho-k1; further: in other assays of this panel Not Active means under 50% inhibition at 10 µM
T4 sequence (Q9Y271 whole entry): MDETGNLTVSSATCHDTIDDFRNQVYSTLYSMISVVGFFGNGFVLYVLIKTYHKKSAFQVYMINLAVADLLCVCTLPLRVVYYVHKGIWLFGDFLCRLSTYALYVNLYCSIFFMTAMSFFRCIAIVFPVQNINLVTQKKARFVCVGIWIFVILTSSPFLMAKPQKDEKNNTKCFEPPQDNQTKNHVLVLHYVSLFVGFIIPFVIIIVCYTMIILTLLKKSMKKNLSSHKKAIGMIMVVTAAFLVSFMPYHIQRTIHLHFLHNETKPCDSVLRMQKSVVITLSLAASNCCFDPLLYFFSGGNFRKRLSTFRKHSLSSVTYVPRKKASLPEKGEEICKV

[5] = molecular target: T5, Neuropeptide Y receptor type 2 (Homo sapiens, UniProt P49146); format: cell membranes, Membrane; conditions: kan-ts; further: in other assays of this panel Not Active means under 50% inhibition at 10 µM
T5 sequence (P49146 whole entry): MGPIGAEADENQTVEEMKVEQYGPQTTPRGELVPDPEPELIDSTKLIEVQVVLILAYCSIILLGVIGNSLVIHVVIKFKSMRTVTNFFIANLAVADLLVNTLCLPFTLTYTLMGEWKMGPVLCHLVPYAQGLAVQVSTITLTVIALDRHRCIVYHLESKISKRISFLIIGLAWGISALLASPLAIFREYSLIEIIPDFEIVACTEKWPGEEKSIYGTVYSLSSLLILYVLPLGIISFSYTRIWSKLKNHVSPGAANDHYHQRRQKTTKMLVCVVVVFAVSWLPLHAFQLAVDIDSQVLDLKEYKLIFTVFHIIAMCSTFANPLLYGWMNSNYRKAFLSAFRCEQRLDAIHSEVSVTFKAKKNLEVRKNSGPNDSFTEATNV

[6] = molecular target: Voltage-gated inwardly rectifying potassium channel KCNH2 (Homo sapiens, UniProt Q12809); conditions: hek293; further: in other assays of this panel Not Active means under 50% inhibition at 10 µM
Chain of Voltage-gated inwardly rectifying potassium channel KCNH2 (Q12809 whole entry): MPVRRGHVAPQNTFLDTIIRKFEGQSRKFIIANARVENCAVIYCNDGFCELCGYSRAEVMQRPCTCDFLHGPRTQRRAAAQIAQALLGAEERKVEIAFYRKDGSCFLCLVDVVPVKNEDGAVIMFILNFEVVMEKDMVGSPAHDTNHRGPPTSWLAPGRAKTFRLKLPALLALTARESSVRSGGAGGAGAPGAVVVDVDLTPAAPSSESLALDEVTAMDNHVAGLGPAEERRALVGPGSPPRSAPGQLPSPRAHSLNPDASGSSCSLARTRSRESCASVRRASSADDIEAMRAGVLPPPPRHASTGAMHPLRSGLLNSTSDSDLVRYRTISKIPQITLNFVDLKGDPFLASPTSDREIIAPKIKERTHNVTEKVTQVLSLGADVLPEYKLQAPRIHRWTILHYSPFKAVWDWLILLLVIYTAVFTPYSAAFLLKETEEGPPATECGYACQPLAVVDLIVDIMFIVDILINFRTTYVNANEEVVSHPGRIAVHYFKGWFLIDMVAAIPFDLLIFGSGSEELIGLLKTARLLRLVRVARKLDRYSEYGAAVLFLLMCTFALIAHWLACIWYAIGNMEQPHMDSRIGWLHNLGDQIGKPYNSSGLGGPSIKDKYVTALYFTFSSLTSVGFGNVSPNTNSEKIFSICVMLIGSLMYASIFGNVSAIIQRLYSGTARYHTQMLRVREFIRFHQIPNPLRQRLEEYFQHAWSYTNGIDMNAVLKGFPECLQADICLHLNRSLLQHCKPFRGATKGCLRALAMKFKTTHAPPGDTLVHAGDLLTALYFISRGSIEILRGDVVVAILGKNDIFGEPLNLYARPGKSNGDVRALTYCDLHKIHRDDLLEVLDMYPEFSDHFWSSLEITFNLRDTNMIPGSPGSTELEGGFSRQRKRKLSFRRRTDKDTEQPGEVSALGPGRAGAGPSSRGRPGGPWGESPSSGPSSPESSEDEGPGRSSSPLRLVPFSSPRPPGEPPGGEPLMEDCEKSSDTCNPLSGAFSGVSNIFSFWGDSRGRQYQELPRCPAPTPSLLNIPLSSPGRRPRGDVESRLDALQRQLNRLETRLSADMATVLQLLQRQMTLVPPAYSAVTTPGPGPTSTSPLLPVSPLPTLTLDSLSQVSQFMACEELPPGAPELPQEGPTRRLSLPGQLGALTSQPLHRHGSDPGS

COc1ccc(C[C@H](N)C(=O)N[C@H]2[C@@H](O)[C@H](n3cnc4c(N(C)C)ncnc43)O[C@@H]2CO)cc1 [PUROMYCIN]
Not Active: IC50 (B2 bradykinin receptor) | IC50 [1] | Ki [1] | IC50 [2] | Ki [2] | IC50 [3] | IC50 (Leukotriene C4 synthase) | IC50 [4] | IC50 [5] | IC50 [6] | Ki [6]

O=c1[nH]c2ccccc2c2ccccc12
Not Active: IC50 (B2 bradykinin receptor) | IC50 [1] | Ki [1] | IC50 [2] | Ki [2] | IC50 [3] | IC50 (Leukotriene C4 synthase) | IC50 [4] | IC50 [5] | IC50 [6] | Ki [6]

COPPER(II) OXIDE
Not Active: IC50 (B2 bradykinin receptor) | Ki (B2 bradykinin receptor) | IC50 [1] | Ki [1] | IC50 [2] | Ki [2] | IC50 [3] | Ki [3] | IC50 (Leukotriene C4 synthase) | Ki (Leukotriene C4 synthase) | IC50 [4] | Ki [4] | IC50 [5] | Ki [5] | IC50 [6] | Ki [6]

CC12CCC(CC1)C(C)(C)O2 [EUCALYPTOL]
Not Active: IC50 (B2 bradykinin receptor) | IC50 [1] | Ki [1] | IC50 [2] | Ki [2] | IC50 [3] | IC50 (Leukotriene C4 synthase) | IC50 [4] | IC50 [5] | IC50 [6] | Ki [6]
